Legend:
[1] = system: radiation damage; assay: Protective effect against radiation damage: survival of mouse; assay type: in vivo, male ICR mouse; settings: 100 mg/kg per day, 2 days
Source text: Further, the present inventors have confirmed the protective effect of allylthiopyridazine derivative according to the present invention against radiation by administering the active compound to mouse, irradiating the radiation of 8 or 9Gy and, after a certain period, measuring the survival rate of mouse. For example, the survival rate during 30 days of 8Gy radiation can be seen from FIG. 3, and the specific experimental result is described in the following Table 7. Specifically, when 8Gy radiation is used, the survival rate during 30 days in the groups which only radiation was used was merely 48%, whereas the survival rates during 30 days in the groups to which the compounds of Examples 4 and 8 are previously administered were 76% and 70%, respectively. Therefore, it can be noted that the protective effect of the compound according to the present invention against radiation is proven to be a very significant novel discovery.
Protective effect against radiation damage
In order to confirm the protective effect of the compound of the present invention against radiation damage, the following test was conducted.
Male ICR mouse was bred in a chamber to which sterile atmosphere is supplied, at inner temperature 20-23° C. and relative humidity 50% with sufficient water and feed. When the weight of mouse reached 20-25 g, the compound of the present invention was suspended in corn oil and then administered for 2 days in the dose of 100 mg/kg (1 ml/kg) per day. After 3 hours from the last administration of the test compound, 8 or 9 Gy radiation was irradiated to mouse. Specifically, mouse was introduced into a box made of acryl which limited his movement, and then radiation produced from ^60 Co radioactive material was irradiated to whole body at the irradiating rate of 115.8 cGy/min. The dimension of acryl box was 31×31 cm^2, which is the same as the irradiating area of radiation. After 7 days of irradiation of γ-ray, mouse was sacrificed to conduct the histopathologic observation. The result of examining the survival rate during 30 days of irradiation of 8 Gy radiation is shown in FIG. 3, and the result of determining the survival rate after a certain period (10, 13 or 30 days) from irradiation of 8 or 9 Gy radiation is described in the following Table 7.

[2] = system: serum ALT (alanine aminotransferase); assay: Effect of inhibiting hepatic disorder induced by carbon tetrachloride: serum ALT; assay type: in vivo, male ICR mice; settings: CCl4 100 μl/kg i.p., compound 50 mg/kg per day oral, 3 days; for Serum ALT value: mean±SE
Source text: First, the effects of allylthiopyridazine derivative of formula (I) for prevention and treatment of hepatic diseases was examined using carbon tetrachloride model and acetaminophen model.
Carbon tetrachloride model [see, Philippe letteron et al., Biochemical Pharmacology, 39, 12, 2027-2034, 1990] is most frequently used as an experimental model of hepatic disorder and has been established on the basis of the fact that carbon tetrachloride is converted into trichloromethyl free radical (CCl3 .), a highly toxic metabolite, by the action of cytochrome P-450 in body. This metabolite strongly binds with thiol group of liver microsomal membrane protein to produce a lipid radical, which is then converted into peroxy radical in the presence of oxygen, thereby stimulating the peroxidation reaction of membrane lipid. That is, carbon tetrachloride inhibits protein biosynthesis in liver, increases blood ALT (alanine aminotransferase) and causes centrilobular necrosis of liver cells.
(§1) In the present invention, the inhibiting effect of the compound of formula (I) on hepatic disorder, induced by carbon tetrachloride and acetaminophene, was determined after oral administration of the novel compound according to the present invention to mouse as the experimental animal for 3 days. The degree of liver damage in respective experimental animal was determined by measuring ALT and LDH levels in blood [see, Biol. Pharm. Bull., 20, 4, 381-385, 1997; Toxicology and Applied Pharmacology, 95, 1-11, 1988], and further by removing the liver, staining (×100) the liver with hematoxylin and eosin and then observing with microscope to examine the degree of hepatocyte necrosis.
Effect of inhibiting hepatic disorder induced by carbon tetrachloride
(§2) The liver protective effect of the compound according to the present invention was examined according to the known method [see, Philippe letteron et al., Biochemical Pharmacology, 39, 12, 2027-2034, 1990] as specifically described below.
(§3) The compound according to the present invention was suspended in corn oil and the resulting suspension was administered in an amount of 1.0 ml/kg. Each group was composed of 3 to 10 male ICR mice (5-6 weeks) and the test compound was orally administered for 3 days in the dose of 50 mg/kg per day. After the test compound was administered, carbon tetrachloride was intraperitoneally injected in an amount of 100 μl/kg. In this experiment, silymarin was used as the comparative compound. After 24 hours from administration of carbon tetrachloride, blood was taken from the test animal by cardiac perforation and ALT value in serum was determined. The result obtained is described in the following Table 2 (in which ALT value is represented by mean±SE). The ALT unit in serum was determined by centrifuging blood to separate serum as the supernatant, and then the separated serum were subjected to Reitman-Frankel method by means of a commercially available kit (BC101-O,P, Youngdong Pharm.). That is, DL-alanine and α-ketoglutarate were used as the substrate solution to which 2,4-dinitrophenylhydrazine was added to produce hydrazone. Then, sodium hydroxide was added to hydrazone to colorize and then the absorbance was measured at 505 nm.

[3] = system: hepatocyte necrosis; assay: Effect of inhibiting hepatic disorder induced by acetaminophen (APAP): hepatocyte necrosis; assay type: in vivo, male ICR mice; settings: APAP model, 50 mg/kg per day oral, 3 days; for Degree of necrosis 0: number of animals: grade 0 no lesion; for Degree of necrosis 1: number of animals: grade 1 mild lesion; for Degree of necrosis 2: number of animals: grade 2 moderate lesion; for Degree of necrosis 3: number of animals: grade 3 severe lesion; for Degree of necrosis 4: number of animals: grade 4 diffused lesion
Method: as §1
(§4) In addition, liver was removed from the test animals, stained (×100) with hematoxylin and eosin and then observed by microscope. The degree of hepatocyte necrosis was evaluated according to the following 5 grades: 0 no lesion, 1 mild lesion, 2 moderate lesion, 3 severe lesion and 4 diffused lesion.
(§5) The liver protective effect of the compound according to the present invention was examined according to the known method [see, Wang et al., Toxicology and applied Pharmacology, 136, 146-154, 1996] as specifically described below.
(§6) The compound according to the present invention was suspended in corn oil and the resulting suspension was administered in an amount of 1.0 ml/kg. Each group was composed of 3 to 10 male ICR mice (5-6 weeks) and the test compound was orally administered for 3 days in the dose of 50 mg/kg per day. After 2 hours from the last administration of the test compound, acetaminophen was orally administered in an amount of 0.5 g/kg. In this experiment, silymarin was used as the comparative compound. After 22 hours from the administration of acetaminphen, blood was taken from the individual test animal and ALT and LDH values in serum were determined. The results as obtained are described in the following Tables 4 and 5 (in which ALT and LDH values are represented by mean±SE). In addition, liver was removed from the test animals and then observed according to the same manner as Experiment 3 to evaluate the degree of hepatocyte necrosis.

[4] = system: hepatocyte necrosis; assay: Effect of inhibiting hepatic disorder induced by carbon tetrachloride: hepatocyte necrosis; assay type: in vivo, male ICR mice; settings: CCl4 model, 50 mg/kg per day oral, 3 days; for Degree of necrosis 1: number of animals: grade 1 mild lesion; for Degree of necrosis 2: number of animals: grade 2 moderate lesion; for Degree of necrosis 3: number of animals: grade 3 severe lesion; for Degree of necrosis 4: number of animals: grade 4 diffused lesion
Method: as §1, §2, §3, §4

[5] = system: serum ALT (alanine aminotransferase); assay: Effect of inhibiting hepatic disorder induced by acetaminophen (APAP): serum ALT; assay type: in vivo, male ICR mice; settings: APAP 0.5 g/kg oral, compound 50 mg/kg per day oral, 3 days; for Serum ALT value: mean±SE
Source text: (§7) In addition, the liver protective effects of the compound of the present invention can also be confirmed by acetaminophen model [see, Wang et al., Toxicology and applied Pharmacology, 136, 146-154, 1996]. Acetaminophen is rapidly metabolized by CYP2E1 to cause hepatic toxicity, which results in structural and functional change in liver cellular membrane, causing necrosis in hepatic lobule, an increase in blood ALT and LDH (lactate dehydrogenase) levels.
as §1
(§8) Effect of inhibiting hepatic disorder induced by acetaminophen (APAP)
as §5, §6

[6] = system: serum LDH (lactate dehydrogenase); assay: Effect of inhibiting hepatic disorder induced by acetaminophen (APAP): serum LDH; assay type: in vivo, male ICR mice; settings: APAP 0.5 g/kg oral, compound 50 mg/kg per day oral, 3 days; for Serum LDH value: mean±SE
Source text: as §7, §1, §8, §5, §6

[7] = literature; cited from earlier work
[8] = system: microsomal epoxide hydrolase (mEH) and glutathione S-transferases (GST); settings: literature; cited from earlier work
[9] = literature; cited from earlier work; remark: listed apart in the source
[10] = induced by carbon tetrachloride and acetaminophen; cited from earlier work

| Structure (SMILES) | Inhibiting rate (serum ALT) [2] [%] | Serum ALT value [2] [KA unit/l] | Degree of necrosis 0: number of animals [3] | Degree of necrosis 1: number of animals [3] | Degree of necrosis 2: number of animals [3] | Degree of necrosis 3: number of animals [3] | Degree of necrosis 4: number of animals [3] | Degree of necrosis 1: number of animals [4] | Degree of necrosis 2: number of animals [4] | Degree of necrosis 3: number of animals [4] | Degree of necrosis 4: number of animals [4] | Inhibiting rate (serum ALT) [5] [%] | Serum ALT value [5] [KA unit/l] | Inhibiting rate (serum LDH) [6] [%] | Serum LDH value [6] [KA unit/l] | effect on oncogenesis and hepatotoxicity of 1,2-dimethylhydrazine [9] | further results |
| --- | --- | --- | --- | --- | --- | --- | --- | --- | --- | --- | --- | --- | --- | --- | --- | --- | --- |
| C=CCSc1ccc(OCC)nn1 [Example 8] | 33 | 6123 ± 2230 | 7 | 0 | 2 | 0 | 0 | 1 | 2 | 1 | 3 | 99 | 98 ± 26 | 95.6 | 1193 ± 546 |  | survival number ([1]; 10 days of 9 Gy radiation): 17/23; survival rate ([1]; 10 days of 9 Gy radiation): 74%; survival number ([1]; 13 days of 9 Gy radiation): 5/23; survival rate ([1]; 13 days of 9 Gy radiation): 22%; survival number ([1]; 30 days of 8 Gy radiation): 16/23; survival rate ([1]; 30 days of 8 Gy radiation): 70% |
| C=CCSc1ccc(OCCC)nn1 [Example 12, 3-(n-propoxy)-6-allylthiopyridazine] | 40 | 5585 ± 705 | 0 | 1 | 1 | 1 | 3 | 0 | 2 | 3 | 4 | 25 | 2749 ± 1352 | 59 | 5480 ± 2346 |  | Degree of necrosis 0: number of animals ([4]; grade 0 no lesion): 0 |
| Cc1c(-c2cnccn2)ssc1=S [Oltipraz] |  |  |  |  |  |  |  |  |  |  |  |  |  |  |  |  | protection of cellular tissue from radiation [7]: protect the cellular tissue from radiation; expression rate of mEH and GST [8]: increases the expression rate of microsomal epoxide hydrolase (mEH) and glutathione S-transferases (GST) |
| C=CCS[S+]([O-])CC=C (stereo not drawn) [allicin] |  |  |  |  |  |  |  |  |  |  |  |  |  |  |  | inhibiting oncogenesis due to 1,2-dimethylhydrazine and protecting liver from hepatotoxicity of 1,2-dimethylhydrazine |  |
| C=CCSCC=C [diallyl sulfide] |  |  |  |  |  |  |  |  |  |  |  |  |  |  |  | inhibiting oncogenesis due to 1,2-dimethylhydrazine and protecting liver from hepatotoxicity of 1,2-dimethylhydrazine |  |
| CC(C)OC(=O)C(C(=O)OC(C)C)=C1SC=CS1 [malotilate] |  |  |  |  |  |  |  |  |  |  |  |  |  |  |  |  | effect of preventing and treating hepatic diseases [10]: good effect of preventing and treating hepatic diseases induced by carbon tetrachloride and acetaminophen |
